From ChEMBL document CHEMBL1201862, “PubChem BioAssay data set” (2004)
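The compound was tested at five concentrations on cells cultured in 96-well plates, with a 48-hour exposure period. GI50 = concentration required for 50% inhibition of growth.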 Calls of active or inactive are those of the source. No stated cut-off is given here; in the data, active = GI50 up to about 1.1 µM and inactive = higher.

Legend:
Assay in all cases: NCI anticancer screen, dose series, 48 h
A549 = system: A549
CAKI-1 = system: CAKI-1
EKVX = system: EKVX
HT-29 = system: HT-29
KM12 = system: KM12
MDA-MB-231 = system: MDA-MB-231
MDA-N = system: MDA-N
MOLT-4 = system: MOLT-4
Malme-3M = system: Malme-3M
SK-MEL-28 = system: SK-MEL-28
SK-MEL-2 = system: SK-MEL-2
SN12C = system: SN12C
SNB-75 = system: SNB-75
SR = system: SR
T47D = system: T47D
HL-60 = system: HL-60
HOP-92 = system: HOP-92
NCI-H23 = system: NCI-H23
SF-539 = system: SF-539

Measured: GI50

Cc1ccc(C)n1-n1c(-c2ccccc2)n[nH]c1=O
inactive: A549 > 100 µM | CAKI-1 > 100 µM | EKVX > 100 µM | HT-29 > 100 µM | KM12 34.3 µM | MDA-MB-231 > 100 µM | MDA-N 24.8 µM | MOLT-4 > 100 µM | Malme-3M > 100 µM | SK-MEL-28 > 100 µM | SK-MEL-2 > 100 µM | SN12C > 100 µM | SNB-75 > 100 µM | SR 51.9 µM | T47D > 100 µM

Nc1nc(N)c(N=O)c(OCC2CCCCC2)n1
inactive: A549 17.8 µM | CAKI-1 7.55 µM | EKVX 20.5 µM | HL-60 14.7 µM | HOP-92 7.83 µM | HT-29 9.64 µM | KM12 18.7 µM | MDA-MB-231 5.02 µM | MDA-N 11 µM | MOLT-4 6.64 µM | NCI-H23 12.2 µM | SF-539 8.91 µM | SK-MEL-28 15.7 µM | SK-MEL-2 11 µM | SN12C 5.15 µM | SNB-75 5.01 µM | SR 4.76 µM | T47D 5.57 µM

COC(=O)CC1c2ccccc2N2C(=O)Cc3c([nH]c4ccccc34)C12 (centres undefined)
inactive: A549 > 100 µM | CAKI-1 > 100 µM | EKVX > 100 µM | HOP-92 55.8 µM | HT-29 > 100 µM | KM12 > 100 µM | MDA-MB-231 > 100 µM | MDA-N > 100 µM | MOLT-4 > 100 µM | Malme-3M 66.5 µM | NCI-H23 > 100 µM | SK-MEL-28 > 100 µM | SK-MEL-2 > 100 µM | SN12C > 100 µM | SNB-75 > 100 µM | SR > 100 µM | T47D > 100 µM

O=C(OCC1CCCN2CCCCC12)c1ccncc1 (centres undefined)
inactive: A549 > 100 µM | CAKI-1 > 100 µM | EKVX > 100 µM | HOP-92 > 100 µM | HT-29 > 100 µM | KM12 > 100 µM | MDA-MB-231 > 100 µM | MDA-N > 100 µM | MOLT-4 > 100 µM | Malme-3M > 100 µM | NCI-H23 > 100 µM | SF-539 > 100 µM | SK-MEL-28 > 100 µM | SK-MEL-2 > 100 µM | SN12C > 100 µM | SNB-75 > 100 µM | SR > 100 µM | T47D > 100 µM

BrCCCCCOc1ccc(-c2c3ccccc3c(-c3ccc(OCCCCCBr)cc3)c3ccccc23)cc1
inactive: A549 > 100 µM | CAKI-1 > 100 µM | EKVX > 100 µM | HL-60 > 100 µM | HT-29 > 100 µM | KM12 > 100 µM | MDA-MB-231 > 100 µM | MDA-N > 100 µM | MOLT-4 > 100 µM | SF-539 > 100 µM | SK-MEL-28 > 100 µM | SK-MEL-2 > 100 µM | SN12C > 100 µM | SNB-75 38.5 µM | SR > 100 µM | T47D > 100 µM

CCOC(=O)c1cn(CC)c(=O)n2c1nc1ccccc12
inactive: A549 58.7 µM | CAKI-1 57.9 µM | EKVX > 100 µM | HOP-92 30.1 µM | HT-29 36.7 µM | KM12 59.6 µM | MDA-MB-231 > 100 µM | MDA-N > 100 µM | MOLT-4 14.1 µM | NCI-H23 55.7 µM | SF-539 55.5 µM | SK-MEL-28 > 100 µM | SK-MEL-2 > 100 µM | SN12C > 100 µM | SNB-75 > 100 µM | SR 28.4 µM | T47D 63.5 µM

Cn1c(N)c(/C=N/NC(=O)CC#N)c(=O)n(C)c1=O
inactive: A549 > 100 µM | CAKI-1 > 100 µM | EKVX > 100 µM | HT-29 > 100 µM | KM12 > 100 µM | MDA-MB-231 > 100 µM | MDA-N > 100 µM | MOLT-4 > 100 µM | Malme-3M 59.8 µM | SK-MEL-28 > 100 µM | SK-MEL-2 > 100 µM | SN12C > 100 µM | SNB-75 > 100 µM | SR > 100 µM | T47D > 100 µM

OCCSCCCSCCO
inactive: A549 > 100 µM | EKVX > 100 µM | HL-60 30.7 µM | HOP-92 27.1 µM | HT-29 > 100 µM | KM12 > 100 µM | MDA-MB-231 > 100 µM | MDA-N > 100 µM | MOLT-4 32.1 µM | NCI-H23 > 100 µM | SF-539 > 100 µM | SK-MEL-28 > 100 µM | SN12C > 100 µM | SNB-75 > 100 µM | SR 39.9 µM | T47D > 100 µM

O=c1[nH]c(=O)n(C2CC(O)C(CO)O2)c2nc3cc4ccccc4cc3nc12 (centres undefined)
inactive: A549 > 100 µM | CAKI-1 > 100 µM | EKVX > 100 µM | HOP-92 79.1 µM | KM12 > 100 µM | MDA-MB-231 52.7 µM | MDA-N > 100 µM | MOLT-4 61.7 µM | Malme-3M > 100 µM | NCI-H23 > 100 µM | SF-539 > 100 µM | SK-MEL-28 > 100 µM | SK-MEL-2 > 100 µM | SN12C > 100 µM | SNB-75 74.8 µM | SR 91.6 µM | T47D > 100 µM
